We go through five compounds from patent publication US11679118B2, “Parasite therapy” (priority 2009, dated 2023).

SMILES strings stand for the structures.

Experiment [1] deals with D. fragilis or B. hominis. Put plainly: Treatment of patients with D. fragilis and/or B. hominis infection (combined infection), symptoms and overall outcome. The note with it: for outcome of previous treatments: patient with combined B. hominis and D. fragilis infection, 3 different treatments before referral; for stool examination after previous treatments / symptoms after previous treatments: patient, various treatments before referral. The class given is in vivo, Dientamoeba fragilis; Blastocystis hominis. How it is done:
In another aspect the present invention relates to triple combinations of drugs. In some circumstances, especially with resistance even triple therapies may need to be combined to effect a cure. […] Again, the treatment requires 1 mg-5 grams/day of each of the components from 1-50 days. Other triple combinations can include iodoquinol, furazolidone and nitazoxanide. Combinations can also include diloxinide furoate, doxycycline and metronidazole in various triple combinations.
(§1) The patient was brought into the clinic and after bowel preparation a transcolonoscopic infusion of furazolidone, nitazoxanide and secnidazole was carried out.
The patient was referred to the Clinic for treatment. Symptoms were quite severe and they were given a combination of four medications including Septrin DS (cotrimoxazole) two times a day, diloxanide furoate 500 mg three times a day and secnidazole 400 mg three times a day together with doxycycline 50 mg two times a day.

For experiment [2], the system named is B. hominis. Kind of experiment: Treatment of patients with B. hominis infection, follow-up by stool test and symptoms. The class given is in vivo, Blastocystis hominis.
For experiment [3], the system named is Giardia lamblia. Kind of experiment: Treatment of a patient with chronic Giardiasis, follow-up by stool tests and symptoms. Type of experiment: in vivo. Particulars: previous speculative treatment in adequate doses. An excerpt:
A patient with weight loss and diarrhea presented for an endoscopy.

In experiment [4] the test system is B. hominis. The note with it: in Egypt; Rossignol et al 2005; cited from earlier work.
The subject of experiment [5] is D. fragilis. Put plainly: Treatment of patients with D. fragilis infection, follow-up by stool test. Particulars: clinical experience and usage; also frequently ineffective as monotherapy. Type of experiment: in vivo, Dientamoeba fragilis. How it is done: as §1
[6] abbreviates: person, 400 mg bid for 14 days, at 6 months.

In the case of `Cc1ncc([N+](=O)[O-])n1CCO` [metronidazole], in experiment [1], the “outcome of previous treatments” value was “failed”; the “stool examination after previous treatments” value (“stool examination” for short) was “ongoing B. hominis and D. fragilis”; the “symptoms after previous treatments” value is on record as “improved but then they recurred”. In addition, the “outcome of previous therapies” value in experiment [2] (resistant Blastocystis hominis, multiple therapies before referral) is “failed”. In experiment [3], the “Giardia lamblia infection, histologically at endoscopy” value is listed as “continued to have Giardia lamblia infection” and the diarrhea result is recorded as “did not settle”.

For `O=C1OCCN1/N=C/c1ccc([N+](=O)[O-])o1` [furazolidone], in experiment [1], the “stool examination” value is “ongoing B. hominis and D. fragilis”; the “symptoms after previous treatments” value is on record as “improved but then they recurred”.

For the compound `CC(=O)Oc1ccccc1C(=O)Nc1ncc([N+](=O)[O-])s1` [nitazoxanide], in experiment [1], the “stool examination” value is “ongoing B. hominis and D. fragilis”; the “symptoms after previous treatments” value is “improved but then they recurred”. Moreover, in experiment [4], the “effectiveness against Blastocystis hominis” value is “effective”.

For the compound `CCS(=O)(=O)CCn1c([N+](=O)[O-])cnc1C` [tinidazole], in experiment [1], the “outcome of previous treatments” value was “failed”.

On to `CCn1cc(C(=O)O)c(=O)c2cc(F)c(N3CCNCC3)cc21` [norfloxacin], for which the “effectiveness in treatment against Blastocystis hominis” value in experiment [2] (clinical experience and usage, also frequently ineffective as monotherapy) was “effective”. Further, in experiment [2] (setting [6]), the “stool test for B. hominis” value is on record as “negative for B. hominis again” and the symptoms result is listed as “still asymptomatic”. Further, in experiment [2] (person, 400 mg bid for 14 days, follow up at 4 weeks), the “stool test for B. hominis” value is given as “negative for B. hominis”. Also, the “effectiveness in treatment against Dientamoeba fragilis” value in experiment [5] is reported as “effective”.
